Entries after “also recorded” stand apart in the source; their conditions may differ.
Experiments:
Type in all cases: cell-based, human
[1] = system: HCC1954 cells; test: Viability in MTT assay; conditions: 24 h
Protocol: FIG. 8. depicts 8A) Viability of HCC1954 cells treated as indicated for 24 h measured in MTT assays.

[2] = system: HER2, EGFR, Akt, Erk, S6, PARP in HCC1954 cells; test: Immunoblot analysis of treated cells
Excerpt: Immunoblot analysis of HCC1954 cells treated as in 8B.

[3] = system: EGFR, HER2, HER3, Akt, Erk, PARP in MDA-MB-468 cells; test: Immunoblot analysis of treated cells
Protocol: FIG. 3. depicts 3A) the analysis of MDA-MB-468 cells treated as indicated for 24 h by immunoblot for levels of EGFR and EGFR phosphorylation. 3B) the analysis of MDA-MB-468 cells treated as indicated for 24 h by immunoblot for PARP cleavage. 3C) MDA-MB-468 cells were either left untreated, or treated with 20 μM NSC624205 for 24 hours. NSC624205-treated cells were then washed and incubated for the indicated periods in the absence of drug. EGFR electrophoretic mobility was analyzed by immunoblot. 3D) MDA-MB-468 cells were pretreated with 25 μM NSC624205 or vehicle for 15 hours and then either left untreated or stimulated for 15 minutes with 20 ng/ml EGF, after which cell extracts were analyzed by immunoblot. 3E) MDA-MB-468 cells were treated as indicated for 24 hours and analyzed by immunoblot.
FIG. 5. depicts 5A) Photomicrographs of MDA-MB-468 cells treated for 24 h with 20 μM of the indicated compounds. 5B) Immunoblot analysis of MDA-MB-468 cells treated as in 5A. […] 5D) Viability of BT474 or MDA-MB-468 cells treated for 24 h with the indicated drug at the specified concentrations was measured in MTT assays. Assays were carried out in triplicate and results were presented as the average±S.D. 5E) Proliferation of tert-immortalized human mammary epithelial cells (HMEC-tert) and MDA-MB-468, BT474, and SKBR3 breast cancer cells after incubation with the indicated concentrations of RBF3 for 24 h was measured in thymidine incorporation assays as described in FIG. 2D. 5F)-5H) The indicated cell lines were treated with the indicated compounds at 20 μM unless otherwise indicated for 24 h and analyzed by immunoblot.
To examine the reversibility of NSC624205 actions, MDA-MB-468 cells were treated for 24 hr with NSC624205 and then the compound was washed out and the cells were allowed to recover for various periods of time. […] To examine whether NSC624205 can suppress cellular responses to EGF, cells were stimulated with EGF either with or without NSC624205 treatment.

[4] = system: MDA-MB-468 breast cancer cells; test: Cell viability / cell killing, photomicrographs of treated cells
Protocol: (§1) FIG. 2. depicts 2A) Photomicrographs of MDA-MB-468 or BxPC3 cells treated for 24 hours with 25 μM NSC624205 or the vehicle control. 2B) MDA-MB-468 cells were treated for 24 hours with the indicated concentrations of NSC624203, NSC624204, and NSC624205 and cell viability (mass) was measured by crystal violet staining. 2C) Photomicrographs of MDA-MB-468, SKBR3, or MDA-MB-231 cells treated for 24 h with 10 μM NSC624205 or the vehicle control. 2D) Cell proliferation was measured by thymidine incorporation through the treatment of MDAMB-468 and SKBR3 cells for 24 hours with NSC624203, an EGFR/HER2 inhibitor, or a combination of the two compounds. Results are presented as the average of triplicate determinations±S.D. 2E) The indicated cancer cell lines were treated for 24 h with 20 μM NSC624205 or vehicle and cell extracts were analyzed by immunoblot. Actin serves as a loading control.
FIG. 5. depicts 5A) Photomicrographs of MDA-MB-468 cells treated for 24 h with 20 μM of the indicated compounds. 5B) Immunoblot analysis of MDA-MB-468 cells treated as in 5A. 5C) Chemical structures of Disulfide bond Disrupting Agents (DDAs) showing active compounds on the left side with the pharmacophore highlighted in red, along with the generic pharmacophore. […] The exception to this rule is NSC627175/DTDO, which represents a different pharmacophore. 5D) Viability of BT474 or MDA-MB-468 cells treated for 24 h with the indicated drug at the specified concentrations was measured in MTT assays. Assays were carried out in triplicate and results were presented as the average±S.D. 5E) Proliferation of tert-immortalized human mammary epithelial cells (HMEC-tert) and MDA-MB-468, BT474, and SKBR3 breast cancer cells after incubation with the indicated concentrations of RBF3 for 24 h was measured in thymidine incorporation assays as described in FIG. 2D. 5F)-5H) The indicated cell lines were treated with the indicated compounds at 20 μM unless otherwise indicated for 24 h and analyzed by immunoblot.
The sulfur atom in sulfinic acids can act as a nucleophile capable of breaking disulfide bonds. […]

[5] = system: T47D.Puro and T47D.EGFR cells; test: Thymidine incorporation, vector control versus EGFR overexpressing cells; conditions: 24 h, increasing concentrations
[6] = system: SKBR3 cells; test: Cell proliferation by thymidine incorporation; conditions: 24 hours, same concentration
Protocol: as §1
(§2) The sulfur atom in sulfinic acids can act as a nucleophile capable of breaking disulfide bonds. Therefore we obtained several sulfinate-containing compounds from the National Cancer Institute's Developmental Therapeutics Program (NCI/DTP) and, as an initial screen, examined their ability to decrease the viability of various human cancer cell lines. […] NSC624205 and two related compounds, NSC624203 and NSC624204, decreased cell viability by 50% in the range of 3.7-33 μM (FIG. 2B). […]

[7] = system: MDA-MB-468 cells; test: Cell proliferation by thymidine incorporation; conditions: 24 hours, same concentration
Protocol: as §1, §2

[8] = system: EGFR, Akt in EGFR overexpressing T47D cells; test: Immunoblot analysis of treated cells; conditions: 20 μM, 24 hours
Protocol: (§3) FIG. 4. depicts 4A) the treatment of vector control or EGFR overexpressing T47D cells with 20 μM NSC624205 or vehicle for 24 hours and then photographed. […] 4B) Cells treated as in 4A) were subjected to immunoblot analysis.

[9] = system: EGFR, HER2, HER3, Akt, Erk in SKBR3 cells; test: Immunoblot analysis of treated cells; conditions: 20 μM, 24 h
Protocol: as §1
FIG. 5. depicts 5A) Photomicrographs of MDA-MB-468 cells treated for 24 h with 20 μM of the indicated compounds. 5B) Immunoblot analysis of MDA-MB-468 cells treated as in 5A. […] 5D) Viability of BT474 or MDA-MB-468 cells treated for 24 h with the indicated drug at the specified concentrations was measured in MTT assays. […] 5F)-5H) The indicated cell lines were treated with the indicated compounds at 20 μM unless otherwise indicated for 24 h and analyzed by immunoblot. […]

[10] = system: BxPC3 pancreatic cancer cells; test: Cell viability, photomicrographs of treated cells; conditions: 25 μM, 24 hours
Protocol: as §1, §2

[11] = system: SKBR3 cells; test: Cell killing, photomicrographs of treated cells; conditions: 10 μM, 24 hr
Protocol: as §1, §2

[12] = system: MDA-MB-231 breast cancer cell line; test: Cell killing, photomicrographs of treated cells; conditions: 10 μM, 24 hr
Protocol: as §1, §2

[13] = system: Erk in T47D cells; test: Immunoblot analysis of treated cells; conditions: 20 μM, 24 h
Protocol: as §1, §2

[14] = system: T47D cells (vector control); test: Cell death, photographs of treated cells
Protocol: as §3

[15] = system: T47D cells with enforced EGFR expression (T47D.EGFR); test: Cell death, photographs of treated cells; conditions: 20 μM, 24 hours
Protocol: as §3

[16] = 25 μM pretreatment 15 hours, 20 ng/ml EGF 15 minutes
[17] = 24 h, increasing concentrations

## CS(=O)(=O)CCNCc1ccc(-c2ccc3ncnc(Nc4ccc(OCc5cccc(F)c5)c(Cl)c4)c3c2)o1 [Lapatinib]
[1]
  response of cell viability to single drug: slightly more responsive
[2]; 24 h, 20 μM RBF3, 100 nM Rapamycin, 20 μM Lapatinib
  Akt phosphorylation: without affecting
[2]; 24 h, 20 μM RBF3, 100 nM Rapamycin, 20 μM Lapatinib (FIG. 8C)
  Erk phosphorylation: reduced

## O=S(O)CCCCSSSCCCCS(=O)O [NSC333839]
[3]; 20 μM, 24 h
  EGFR and Akt phosphorylation: activity similar to NSC624205
[4]; 20 μM, 24 h, panel of sulfinate-containing compounds
  cell viability: activity similar to NSC624205

## O=S(O)CCCCSSCC(O)CO (stereo not drawn) [NSC606968]
[3]; 20 μM, 24 h
  Akt phosphorylation: weak effect
  EGFR electrophoretic mobility: partial effect

## O=S(O)CCCCSSCC(O)C(O)CSSCCCCS(=O)O (stereo not drawn) [NSC624203]
[5]
  sensitivity of proliferation of EGFR overexpressing T47D cells relative to control cells: more sensitive
[3]; 24 hours
  decreasing Akt phosphorylation, increasing PARP cleavage, reducing EGFR and overall cellular tyrosine phosphorylation, compared with AG490 or EGFR/HER2 kinase inhibitor: more effective
[6]
  inhibition of proliferation compared with commercial EGFR/HER2 tyrosine kinase inhibitor (Calbiochem #324673): more effectively suppressed
[7]
  inhibition of proliferation compared with commercial EGFR/HER2 tyrosine kinase inhibitor (Calbiochem #324673): more effectively suppressed

## O=S(O)CCCCSSCCCCSSCCCCS(=O)O [NSC624205]
[8]
  Akt phosphorylation: decreased
  EGFR electrophoretic mobility: electrophoretic mobility shift
[9]
  Akt phosphorylation: inhibiting
  Erk phosphorylation: inhibiting
[10]
  cell viability: little effect
[2]; 20 μM NSC624205, 24 h (FIG. 2E)
  Erk phosphorylation: inhibiting
[3]; 20 μM for 24 hours, then 24 hours post-treatment without drug
  EGFR electrophoretic mobility after washout (reversibility): restored to near control levels
[3]; [16]
  EGFR tyrosine phosphorylation on Tyr845, EGF-induced: decreased
  overall EGF-induced cellular tyrosine phosphorylation: decreased
[3]; [17]
  EGFR electrophoretic mobility: concentration-dependent increase
  EGFR phosphorylation (phospho-specific antibody): decrease
  PARP cleavage: concentration-dependent increase
[11]
  cell killing: killed
[12]
  cell killing: little effect
[13]
  Erk phosphorylation: inhibiting
[14]
  cell killing: not killed
[15]
  cell death: Extensive cell death; also recorded: underwent cell death
[4]; 10 μM, 24 hr
  cell killing: killed
[4]; 25 μM, 24 hours
  cell viability: lethal

Reference: patent publication US20170240570A1, “NOVEL SMALL MOLECULE ANTICANCER AGENTS” (UNIVERSITY OF FLORIDA RESEARCH FOUNDATION, priority 2014, published 2017)
